From publication PMC10910545, “The crystal structure of mycothiol disulfide reductase (Mtr) provides mechanistic insight into the specific low-molecular-weight thiol reductase activity of Actinobacteria” (Acta Crystallographica. Section D, Structural Biology, 2024)

What was measured:
[1] = target: T1, Mtr Ms (mycothiol disulfide reductase) (Mycolicibacterium smegmatis, UniProt A0QVL0); assay: UV-Vis A465/A280 ratio and yellow crystals; type: binding; details: copurified cofactor; FAD not modelled in the 4.7 A structure
T1 construct: gene MSMEG_2611; full-length, 461 residues, pET-22b(+) NdeI/XhoI, E. coli BL21(DE3); homodimer about 100 kDa
T1 sequence (A0QVL0 1-461): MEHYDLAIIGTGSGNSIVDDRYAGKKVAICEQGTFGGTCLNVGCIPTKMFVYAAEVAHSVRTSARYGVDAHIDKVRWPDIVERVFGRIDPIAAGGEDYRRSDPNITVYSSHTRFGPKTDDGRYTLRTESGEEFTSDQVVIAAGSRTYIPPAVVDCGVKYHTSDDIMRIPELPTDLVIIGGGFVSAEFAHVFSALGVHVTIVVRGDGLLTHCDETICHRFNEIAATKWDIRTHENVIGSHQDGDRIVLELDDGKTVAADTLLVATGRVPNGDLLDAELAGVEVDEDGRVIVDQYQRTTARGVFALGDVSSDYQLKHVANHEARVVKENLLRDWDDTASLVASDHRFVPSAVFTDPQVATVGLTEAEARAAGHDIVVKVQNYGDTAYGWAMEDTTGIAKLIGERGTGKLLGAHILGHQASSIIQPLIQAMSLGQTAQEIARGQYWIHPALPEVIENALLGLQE

[2] = target: T2, Mtr Re (mycothiol disulfide reductase) (Rhodococcus erythropolis, UniProt C0ZY75); assay: X-ray crystal structure, […] A; type: binding; details: copurified cofactor, one FAD per monomer; redox-active Cys39-Cys44 on si face
T2 construct: full-length, 458 residues, pET-22b(+) NdeI/XhoI, E. coli BL21(DE3); homodimer about 100 kDa
T2 sequence (C0ZY75 entry or part of it): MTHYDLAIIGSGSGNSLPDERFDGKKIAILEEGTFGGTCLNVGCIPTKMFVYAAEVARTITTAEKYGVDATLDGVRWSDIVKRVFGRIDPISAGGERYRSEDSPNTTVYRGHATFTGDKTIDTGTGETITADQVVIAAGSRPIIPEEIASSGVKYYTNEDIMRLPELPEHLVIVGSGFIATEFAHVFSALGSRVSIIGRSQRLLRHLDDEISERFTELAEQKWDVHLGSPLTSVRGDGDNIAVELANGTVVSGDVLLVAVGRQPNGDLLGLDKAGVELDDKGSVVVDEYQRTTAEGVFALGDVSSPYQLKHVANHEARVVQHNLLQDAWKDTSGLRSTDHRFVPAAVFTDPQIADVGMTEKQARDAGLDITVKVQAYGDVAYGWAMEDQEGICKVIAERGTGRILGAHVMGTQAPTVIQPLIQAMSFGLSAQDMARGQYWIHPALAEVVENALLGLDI

SMILES: Cc1cc2nc3c(=O)[nH]c(=O)nc-3n(C[C@H](O)[C@H](O)[C@H](O)COP(=O)(O)OP(=O)(O)OC[C@H]3O[C@@H](n4cnc5c(N)ncnc54)[C@H](O)[C@@H]3O)c2cc1C [FAD]
- UV-Vis A465/A280 ratio and yellow crystals [1]: support the presence of FAD in both proteins
- X-ray crystal structure, 2.9 A [2]: In Mtr Re , both monomers show strong density for the FAD cofactor
